Like-named read-outs stand apart in the source and are kept apart here.
Tests used:
TLR7 = target: T1, TLR7 (Homo sapiens, UniProt Q9NYK1); experiment: In vitro human TLR7 binding reporter assay (HEK-Blue, NF-kB/AP1-inducible SEAP); format: cell-based; conditions: read-out: TLR7 Agonist EC50
T1 construct: human HEK-Blue cells co-expressing a TLR7 or TLR8 gene
T1 sequence (Q9NYK1 27-1049): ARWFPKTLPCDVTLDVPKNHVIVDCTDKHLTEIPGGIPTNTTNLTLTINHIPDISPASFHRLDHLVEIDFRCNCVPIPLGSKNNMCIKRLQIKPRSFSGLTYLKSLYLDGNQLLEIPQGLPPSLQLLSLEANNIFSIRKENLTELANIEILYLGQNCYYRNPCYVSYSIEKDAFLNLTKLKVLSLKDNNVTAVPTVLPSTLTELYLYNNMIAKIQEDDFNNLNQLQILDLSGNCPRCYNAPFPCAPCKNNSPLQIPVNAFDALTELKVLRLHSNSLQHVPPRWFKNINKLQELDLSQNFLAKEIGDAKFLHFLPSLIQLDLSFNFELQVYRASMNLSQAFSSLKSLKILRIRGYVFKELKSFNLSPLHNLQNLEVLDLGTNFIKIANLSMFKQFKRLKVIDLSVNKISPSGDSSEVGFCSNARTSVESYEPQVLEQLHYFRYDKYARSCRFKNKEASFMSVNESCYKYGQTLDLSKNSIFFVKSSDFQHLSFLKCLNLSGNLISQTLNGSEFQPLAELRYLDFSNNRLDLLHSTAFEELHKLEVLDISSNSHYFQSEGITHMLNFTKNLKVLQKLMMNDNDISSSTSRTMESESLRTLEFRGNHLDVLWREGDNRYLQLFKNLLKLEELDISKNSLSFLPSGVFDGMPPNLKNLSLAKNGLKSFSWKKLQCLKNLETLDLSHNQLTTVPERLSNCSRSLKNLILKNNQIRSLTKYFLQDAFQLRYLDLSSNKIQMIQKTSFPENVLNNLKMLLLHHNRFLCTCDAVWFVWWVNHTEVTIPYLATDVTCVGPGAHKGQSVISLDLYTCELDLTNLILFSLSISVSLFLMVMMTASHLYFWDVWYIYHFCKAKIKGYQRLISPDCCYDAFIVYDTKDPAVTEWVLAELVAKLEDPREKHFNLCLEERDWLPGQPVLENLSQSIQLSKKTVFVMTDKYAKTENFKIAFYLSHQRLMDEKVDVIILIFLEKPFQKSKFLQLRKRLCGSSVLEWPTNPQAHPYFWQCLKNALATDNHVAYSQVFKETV
Summary of the method: (§1)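 EC50s come from NF-kB/AP1-driven SEAP secretion in HEK-Blue cells expressing TLR7 or TLR8, measured with Quanti-Blue after an 18 h compound incubation. Maximal response is defined by a 50 μM reference standard.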

THP-1 cells = experiment: Measurement of IL-1β production, hTRF protocol (second alternative procedure), THP-1 cells; format: cell-based, human; conditions: read-out: NLRP3 hILIB EC50
Summary of the method: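 Compounds, dilution series starting at a final 10 μM, were incubated 2 hours at 37° C with PMA-differentiated THP-1 cells (50 ng/ml overnight; 50,000 cells/well, 2% FBS RPMI). Released IL-1β quantified in supernatant by hTRF kit with 1:40 antibody dilution, 4° C overnight, 665/615 nm ratio.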

TLR8 = target: T2, TLR8 (Homo sapiens, UniProt Q9NR97); experiment: In vitro human TLR8 binding reporter assay (HEK-Blue, NF-kB/AP1-inducible SEAP); format: cell-based; conditions: read-out: TLR8 Agonist EC50
T2 construct: human HEK-Blue cells co-expressing a TLR7 or TLR8 gene
T2 sequence (Q9NR97 27-1041): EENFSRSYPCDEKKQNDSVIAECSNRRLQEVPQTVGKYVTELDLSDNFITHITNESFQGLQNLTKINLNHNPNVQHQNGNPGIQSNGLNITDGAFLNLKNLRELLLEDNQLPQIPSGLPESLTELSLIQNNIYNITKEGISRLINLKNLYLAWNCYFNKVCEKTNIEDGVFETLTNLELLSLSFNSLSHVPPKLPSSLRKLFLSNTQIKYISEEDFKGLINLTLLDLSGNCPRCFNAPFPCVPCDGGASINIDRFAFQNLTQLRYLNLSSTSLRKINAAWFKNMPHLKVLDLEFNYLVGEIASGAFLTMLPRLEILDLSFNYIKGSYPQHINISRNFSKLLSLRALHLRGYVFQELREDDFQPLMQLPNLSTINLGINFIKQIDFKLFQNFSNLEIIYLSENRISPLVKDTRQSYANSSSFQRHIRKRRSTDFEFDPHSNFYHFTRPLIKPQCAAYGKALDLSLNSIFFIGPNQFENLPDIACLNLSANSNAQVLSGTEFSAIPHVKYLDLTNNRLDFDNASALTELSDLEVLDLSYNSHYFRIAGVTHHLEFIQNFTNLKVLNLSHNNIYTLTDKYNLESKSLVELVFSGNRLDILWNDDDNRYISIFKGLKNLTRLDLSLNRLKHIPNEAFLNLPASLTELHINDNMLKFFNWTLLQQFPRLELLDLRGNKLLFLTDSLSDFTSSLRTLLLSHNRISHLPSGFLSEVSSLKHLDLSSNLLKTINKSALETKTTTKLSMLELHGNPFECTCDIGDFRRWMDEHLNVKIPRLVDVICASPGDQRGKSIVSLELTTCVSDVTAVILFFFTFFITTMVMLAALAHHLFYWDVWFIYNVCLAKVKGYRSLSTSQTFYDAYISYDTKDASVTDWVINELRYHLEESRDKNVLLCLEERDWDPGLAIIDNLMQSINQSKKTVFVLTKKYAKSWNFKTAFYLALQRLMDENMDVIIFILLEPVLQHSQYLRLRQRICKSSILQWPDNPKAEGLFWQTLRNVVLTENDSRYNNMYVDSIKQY
Summary of the method: as §1

[1] = Homo sapiens, THP-1, IL-1β production, human cells
[2] = Homo sapiens, THP-1, IL-1β production, human

Row | EC50 (TLR7; activity range) [µM] | EC50 (THP-1 cells; [1]) [µM] | EC50 (TLR8; activity range) [µM] | EC50 (TLR7; activity range class) [µM] | EC50 (THP-1 cells; IL-1β production, human) [µM] | EC50 (TLR8; activity range class) [µM] | EC50 (THP-1 cells; [2]) [µM] | Structure (SMILES)
1 | > 100 | 18.5 | > 100 |  |  |  |  | CC(Cn1cc2c(n1)c(N)nc1cc(-c3cc[nH]n3)ccc12)C(=O)N1CCOCC1 (stereo not drawn) [Example 539]
2 |  |  |  | > 100 | 0.45 | > 100 |  | CC(CCO)n1cc2c(N)nc3cc(-c4cc[nH]n4)ccc3c2n1 (single isomer, unassigned) [Example 288, 3-(4-amino-7-(1H-pyrazol-3-yl)-2H-pyrazolo[4,3-c]quinolin-2-yl)butan-1-ol]
3 | > 100 | 0.78 | > 100 |  |  |  |  | Nc1nc2cc(-c3cc[nH]n3)ccc2c2cn(CC(=O)NC3CCC3)nc12 [Example 548]
4 |  |  |  | > 100 |  | > 100 | 2.9 | CCNC(=O)Cn1cc2c(n1)c(N)nc1cc(-c3cc[nH]n3)ccc12 [Example 24]
5 |  |  |  | > 100 |  | > 100 | 0.57 | Nc1nc2cc(-c3cc[nH]n3)ccc2c2cn(CCCOc3cccnc3)nc12 [Example 9]
6 |  |  |  | > 100 |  | > 100 | 1.72 | Nc1nc2cc(-c3ccn[nH]3)ccc2c2nn(CCNC3CCC3)cc12 [Example 280]
7 |  |  |  | > 100 |  | > 100 | 0.65 | CC(C)C(O)Cn1cc2c(N)nc3cc(-c4cc[nH]n4)ccc3c2n1 (stereo not drawn) [Example 374]
8 |  |  |  | > 100 |  | > 100 | 1.43 | Cc1nccc(C(=O)NCCn2cc3c(n2)c(N)nc2cc(-c4cc[nH]n4)ccc23)n1 [Example 50]
9 | > 100 | 2.66 | > 100 |  |  |  |  | C[C@H](O)Cn1ncc2c(N)nc3cc(-c4cc[nH]n4)ccc3c21 [Example 401]
10 | > 100 | 0.6 | > 100 |  |  |  |  | N#CCCCCn1cc2c(N)nc3cc(-n4cccn4)ccc3c2n1 [Example 559]
11 | > 100 | 1.34 | > 100 |  |  |  |  | CC(C)(C)c1cccc(C(=O)NCCc2cc3c(N)nc4cc(-c5cc[nH]n5)ccc4c3[nH]2)n1 [Example 499]
12 |  |  |  | > 100 |  | > 100 | 1.22 | COCCn1nc2c(N)nc3cc(-c4ccn[nH]4)ccc3c2n1 [Example 162]
13 | > 100 | 0.2 | > 100 |  |  |  |  | N#CCCCCn1cc2c(N)nc3cc(-c4cc[nH]n4)ccc3c2n1 [Example 460]
14 |  |  |  | > 100 |  | > 100 | 5.16 | CC(Cn1cc2c(N)nc3cc(-c4ccn[nH]4)ccc3c2n1)NC(=O)C(C)(C)F (stereo not drawn) [Example 273]
15 |  |  |  | > 100 |  | > 100 | 0.21 | Nc1nc2cc(-c3cc[nH]n3)ccc2c2nn(CC3CC3(F)F)cc12 (stereo not drawn) [Example 386]
16 |  |  |  | 20 to 100 |  | > 100 | 1.38 | Nc1nc2cc(-c3cc[nH]n3)ccc2c2cn(CCNC(=O)c3ccccc3)nc12 [Example 36]
17 | > 100 | 0.43 | > 100 |  |  |  |  | CNC(=O)C(C)Cn1cc2c(N)nc3cc(-c4cc[nH]n4)ccc3c2n1 (stereo not drawn) [Example 612]
18 |  |  |  | > 100 |  | > 100 | 8.34 | Nc1nc2cc(-c3cc[nH]n3)ccc2c2cn(CCCNC(=O)c3ccc(F)cn3)nc12 [Example 125]
19 |  |  |  | > 100 |  | > 100 | 0.31 | Cc1cc(C)n(CCn2cc3c(n2)c(N)nc2cc(-c4cc[nH]n4)ccc23)n1 [Example 166]
20 |  |  |  | 20 to 100 |  | > 100 | 20.7 | Nc1nc2cc(-c3cc[nH]n3)ccc2c2cn(CCNC(=O)CO)nc12 [Example 35]
21 |  |  |  | > 100 |  | > 100 | 0.42 | Nc1nc2cc(-c3cc[nH]n3)ccc2c2cn(CCCOc3ccccc3F)nc12 [Example 7]
22 |  |  |  | > 100 |  | > 100 | 12.5 | Nc1nc2cc(-c3cc[nH]n3)ccc2c2c1cnn2CC(O)CO (stereo not drawn) [Example 235]
23 | > 100 | 20.2 | > 100 |  |  |  |  | CC(C)(C(=O)NCc1ccccn1)n1cc2c(N)nc3cc(-c4cc[nH]n4)ccc3c2n1 [Example 525]
24 |  |  |  | > 100 |  | > 100 | 2.57 | Cc1nc(Cn2cc3c(N)nc4cc(-c5cc[nH]n5)ccc4c3n2)no1 [Example 355]
25 |  |  |  | 20 to 100 |  | 20 to 100 | 0.81 | Cc1nc(C(=O)NCCn2cc3c(n2)c(N)nc2cc(-c4cc[nH]n4)ccc23)c(C(F)(F)F)o1 [Example 71]
26 |  |  |  | > 100 |  | 1 to 20 | 0.21 | Cc1cc(Cn2cc3c(n2)c(N)nc2cc(-c4cc[nH]n4)ccc23)no1 [Example 173]
27 | > 100 | 1.17 | > 100 |  |  |  |  | CN(Cc1cc2c(N)nc3cc(-c4cc[nH]n4)ccc3c2[nH]1)[C@H]1CCOC1 [Example 491]
28 |  |  |  | > 100 |  | > 100 | 0.66 | Nc1nc2cc(-c3cc[nH]n3)ccc2c2nn(CCN3CCCC3)cc12 [Example 304]
29 |  |  |  | > 100 |  | > 100 | 0.25 | CC(O)CCn1cc2c(N)nc3cc(-c4ccn[nH]4)ccc3c2n1 (stereo not drawn) [Example 284]

Source: US12037344B2, “NLRP3 modulators” (INNATE TUMOR IMMUNITY, INC., priority 2018, dated 2024)
